Our source for the IC50 values is ChEMBL document CHEMBL5725244, “IRE-1α inhibitors” (2016).

This assay can be described thus: Inhibition Assay: A fusion protein comprising glutathione S transferase (GST) and human IRE-1α (GST-IRE-1α) obtained from a 500 ml baculovirus-infected insect cell culture can be used to measure IRE-1α activity in vitro.Five ul of a reaction mixture comprising 1x reaction buffer (5x reaction buffer is 100 mM Hepes pH 7.5, 250 mM KOAc, 2.5 mM MgCl2), 3 mM DTT, and 0.4% polyethylene glycol water is added to each well of 384 well plates. Twenty-five nanoliters of a 1 mM test compound solution are added to test wells. Three ul of a 128 ng/ml IRE-1α preparation are added to each test well and to positive control wells (final concentration 5.82 ng/well). Negative control wells contain only reaction mixture and test compound.After spinning the plates at 1200 rpm for 30 seconds, 3 ul of an IRE-1α human mini-XBP-1 mRNA stem-loop substrate 5'-[…]-3' (SEQ ID NO:1), labeled with the fluorescent dye Cy5 at the 5' end and Black Hole Quencher 2 (BH2) at the 3' end, are added to each well of a control plate. The plates are again spun at 1200 rpm for 30 seconds. Final concentrations for the assay are: 63 nM IRE-1α substrate, 5.82 ng IRE-1α protein, and 2.5 uM test compound. The plates are covered with lids and incubated for one hour at 30° C. The plates are then transferred to an ACQUEST microplate reader. Data is analyzed using data analysis software, and the percent activity of IRE-1α is calculated.

On to `CN1CCN(C2CCN(c3ccc4ccc(O)c(CO)c4c3)C2)CC1` (configuration not stated), for which the half-maximal inhibitory concentration (IC50) was more than 1 µM. With `CN1CCN(c2ccc3ccc(O)c(CO)c3c2)CC1` the figure was more than 1 µM. As to `OCc1c(O)ccc2ccc(N3CCCC3)cc12`, the IC50 is more than 1 µM.

For `CN(Cc1ccccc1)C(=O)C1CCN(c2ccc3ccc(O)c(CO)c3c2)C1` (configuration not stated), the half-maximal inhibitory concentration (IC50) was more than 1 µM. As for `CN(Cc1ccccc1)C1CCN(c2ccc3c(C=O)c(O)ccc3c2)C1` (configuration not stated), the figure is more than 1 µM; as for `O=C(C1CCN(c2ccc3ccc(O)c(CO)c3c2)C1)N1CCCCC1` (configuration not stated), more than 1 µM; as for `OCc1c(O)ccc2cc(N3CCOCC3)ccc12`, more than 1 µM.
